According to publication PMC10549826 (Antiviral research, 2023):

Target: A/Victoria/361/2011 NA, wild-type sequence Q136, T148, R150, T439 (recombinant PR8-based A(H3N2) virus) (Influenza A virus, UniProt G9LQ08)
Assay type: biochemical

Question: For `CCC(CC)[C@H](NC(C)=O)[C@@H]1[C@H](O)[C@@H](C(=O)O)C[C@H]1N=C(N)N` [Peramivir, peramivir], which IC50 is on record?
Answer: Its IC50 is 0.07 ± 0.01 nM.
